The record followed here is ChEMBL document CHEMBL1152009, “Synthesis and biological activity of some 3-acryloxymethyl cephalosporins” (Bioorg Med Chem Lett, 1995).

≈ marks a conversion by molar mass, not a printed value.

One test has as its system Staphylococcus aureus. The experiment in a line: In vitro antibacterial activity against Staphylococcus aureus V573 (resistance due to modified target enzyme). In kind it is functional.
Take `C/C=C(\C)C(=O)OCC1=C(C(=O)O)N2C(=O)[C@@H](NC(=O)/C(=N\O)c3cnc(N)s3)[C@H]2SC1`: the MIC is 8 µg/mL (≈ 16.6 µM).

Another test concerns Proteus mirabilis. The experiment in a line: In vitro antibacterial activity against Proteus mirabilis C977. Format: functional.
`C/C=C(\C)C(=O)OCC1=C(C(=O)O)N2C(=O)[C@@H](NC(=O)/C(=N\O)c3cnc(N)s3)[C@H]2SC1` yielded an MIC of 0.25 µg/mL (≈ 0.519 µM).

Another test deals with Escherichia coli. Kind of test: In vitro antibacterial activity against Escherichia coli 10418. Format: functional.
In the case of `C/C=C(\C)C(=O)OCC1=C(C(=O)O)N2C(=O)[C@@H](NC(=O)/C(=N\O)c3cnc(N)s3)[C@H]2SC1`, the MIC worked out at 0.12 µg/mL (≈ 0.249 µM).

The next test has as its system Staphylococcus aureus. The experiment in a line: In vitro antibacterial activity against Staphylococcus aureus Oxford. Format: functional.
Take `C/C=C(\C)C(=O)OCC1=C(C(=O)O)N2C(=O)[C@@H](NC(=O)/C(=N\O)c3cnc(N)s3)[C@H]2SC1`: the MIC was 0.25 µg/mL (≈ 0.519 µM).

The next test deals with Streptococcus pyogenes. The experiment in a line: In vitro antibacterial activity against Streptococcus pyogenes CN10. In kind it is functional.
For `C/C=C(\C)C(=O)OCC1=C(C(=O)O)N2C(=O)[C@@H](NC(=O)/C(=N\O)c3cnc(N)s3)[C@H]2SC1`, the MIC is ≤ 0.03 µg/mL.

For the next test, the system named is Escherichia coli. Kind of test: In vitro antibacterial activity against Escherichia coli 1077 (resistance due to beta-lactamase). Format: functional.
On to `C/C=C(\C)C(=O)OCC1=C(C(=O)O)N2C(=O)[C@@H](NC(=O)/C(=N\O)c3cnc(N)s3)[C@H]2SC1`, for which the MIC is 0.25 µg/mL (≈ 0.519 µM).

The subject of another test is Escherichia coli. The experiment in a line: In vitro antibacterial activity against Escherichia coli JT425 (resistance due to beta-lactamase). Format: functional.
Consider `C/C=C(\C)C(=O)OCC1=C(C(=O)O)N2C(=O)[C@@H](NC(=O)/C(=N\O)c3cnc(N)s3)[C@H]2SC1`, for which the MIC is 0.5 µg/mL (≈ 1.04 µM).

The test system of another test is Moraxella catarrhalis. The experiment in a line: In vitro antibacterial activity against Branhamella catarrhalis Ravasio (resistance due to beta-lactamase). In kind it is functional.
On to `C/C=C(\C)C(=O)OCC1=C(C(=O)O)N2C(=O)[C@@H](NC(=O)/C(=N\O)c3cnc(N)s3)[C@H]2SC1`, for which the MIC worked out at 4 µg/mL (≈ 8.31 µM).

The next test has as its system Klebsiella pneumoniae. Kind of test: In vitro antibacterial activity against Klebsiella pneumoniae T767. In kind it is functional.
`C/C=C(\C)C(=O)OCC1=C(C(=O)O)N2C(=O)[C@@H](NC(=O)/C(=N\O)c3cnc(N)s3)[C@H]2SC1` registered an MIC of 0.5 µg/mL (≈ 1.04 µM).

In another test the test system is Streptococcus pneumoniae. The experiment in a line: In vitro antibacterial activity against Streptococcus pneumoniae 1716. In kind it is functional.
For `C/C=C(\C)C(=O)OCC1=C(C(=O)O)N2C(=O)[C@@H](NC(=O)/C(=N\O)c3cnc(N)s3)[C@H]2SC1`, the MIC is ≤ 0.03 µg/mL.

Another test has as its system Haemophilus influenzae. Kind of test: In vitro antibacterial activity against Haemophilus influenzae Q1. Format: functional.
Regarding `C/C=C(\C)C(=O)OCC1=C(C(=O)O)N2C(=O)[C@@H](NC(=O)/C(=N\O)c3cnc(N)s3)[C@H]2SC1`, the MIC is ≤ 0.03 µg/mL.

The test system of a further test is Morganella morganii. Kind of test: In vitro antibacterial activity against Morganella morganii T361. In kind it is functional.
Compound `C/C=C(\C)C(=O)OCC1=C(C(=O)O)N2C(=O)[C@@H](NC(=O)/C(=N\O)c3cnc(N)s3)[C@H]2SC1` displayed an MIC of 0.12 µg/mL (≈ 0.249 µM).

A further test concerns Staphylococcus aureus. Kind of test: In vitro antibacterial activity against Staphylococcus aureus MB9. In kind it is functional.
As to `C/C=C(\C)C(=O)OCC1=C(C(=O)O)N2C(=O)[C@@H](NC(=O)/C(=N\O)c3cnc(N)s3)[C@H]2SC1`, the MIC was 0.5 µg/mL (≈ 1.04 µM).

For the next test, the system named is Streptococcus pneumoniae. Kind of test: In vitro antibacterial activity against Streptococcus pneumoniae PU7 (resistance due to modified target enzyme. Format: functional.
For the compound `C/C=C(\C)C(=O)OCC1=C(C(=O)O)N2C(=O)[C@@H](NC(=O)/C(=N\O)c3cnc(N)s3)[C@H]2SC1`, the MIC was found to be 0.5 µg/mL (≈ 1.04 µM).

The next test has as its system Enterococcus faecalis. The experiment in a line: In vitro antibacterial activity against Streptococcus faecalis I. In kind it is functional.
For the compound `C/C=C(\C)C(=O)OCC1=C(C(=O)O)N2C(=O)[C@@H](NC(=O)/C(=N\O)c3cnc(N)s3)[C@H]2SC1`, the MIC was > 64 µg/mL.

In another test the test system is Pseudomonas aeruginosa. Kind of test: In vitro antibacterial activity against Pseudomonas aeruginosa 10662. In kind it is functional.
As to `C/C=C(\C)C(=O)OCC1=C(C(=O)O)N2C(=O)[C@@H](NC(=O)/C(=N\O)c3cnc(N)s3)[C@H]2SC1`, the MIC is > 64 µg/mL.

In another test the test system is Escherichia coli. The experiment in a line: In vitro antibacterial activity against Escherichia coli ESS. Format: functional.
Regarding `C/C=C(\C)C(=O)OCC1=C(C(=O)O)N2C(=O)[C@@H](NC(=O)/C(=N\O)c3cnc(N)s3)[C@H]2SC1`, the MIC was ≤ 0.03 µg/mL.

For the next test, the system named is Staphylococcus aureus. Kind of test: In vitro antibacterial activity against Staphylococcus aureus Russell (resistance due to beta-lactamase). Format: functional.
`C/C=C(\C)C(=O)OCC1=C(C(=O)O)N2C(=O)[C@@H](NC(=O)/C(=N\O)c3cnc(N)s3)[C@H]2SC1` came in with an MIC of 0.5 µg/mL (≈ 1.04 µM).

Another test concerns Streptococcus agalactiae. The experiment in a line: In vitro antibacterial activity against Streptococcus agalactiae 2798. In kind it is functional.
As for `C/C=C(\C)C(=O)OCC1=C(C(=O)O)N2C(=O)[C@@H](NC(=O)/C(=N\O)c3cnc(N)s3)[C@H]2SC1`, the MIC was ≤ 0.03 µg/mL.

A further test concerns Staphylococcus epidermidis. The experiment in a line: In vitro antibacterial activity against Staphylococcus epidermidis PHLN20. In kind it is functional.
Take `C/C=C(\C)C(=O)OCC1=C(C(=O)O)N2C(=O)[C@@H](NC(=O)/C(=N\O)c3cnc(N)s3)[C@H]2SC1`: the MIC was 0.25 µg/mL (≈ 0.519 µM).
